For the experiment, the target named is T1, RAC-alpha serine/threonine-protein kinase [139-480,S378A,S381A,T450D,S473D] (Homo sapiens, UniProt P31749, S378A/S381A/S473D/T450D).
T1 construct: 139-480
T1 sequence (P31749 139-480 S378A/S381A/T450D/S473D): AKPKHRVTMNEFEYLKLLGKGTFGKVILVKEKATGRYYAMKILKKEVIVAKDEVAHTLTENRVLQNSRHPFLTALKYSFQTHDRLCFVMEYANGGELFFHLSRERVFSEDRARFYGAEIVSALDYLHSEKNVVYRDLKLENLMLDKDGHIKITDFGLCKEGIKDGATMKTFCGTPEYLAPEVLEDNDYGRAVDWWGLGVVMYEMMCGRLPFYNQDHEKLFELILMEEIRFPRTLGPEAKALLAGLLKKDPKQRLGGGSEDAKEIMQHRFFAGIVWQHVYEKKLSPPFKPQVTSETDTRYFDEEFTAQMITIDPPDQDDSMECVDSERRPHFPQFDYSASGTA
In words: Akt Kinase Assay. As to conditions: pH 7.5; 22 °C. As for the experimental part: The kinase assay uses His-Akt1 and a biotinylated peptide as substrate. The biotinylated peptides were immobilized on streptavidin-coated FLASH plates. After reaction, the 33P-phosphopeptide captured on the FLASH plates was measured with a TopCount Packard Instruments […] (Packard Instruments, Boston, MA).
Take `N[C@H](COc1cncc(-c2ccc3[nH]nc(C(F)(F)F)c3c2)c1)Cc1c[nH]c2ccccc12` [5-{5-[(2S)-2-amino-3-(1H-indol-3-yl)propoxy]pyridin-3-yl}-3-(trifluoromethyl)-1H-indazole]: the IC50 (usually the concentration at which inhibition is half-maximal) is 1.8 nM.

`Cc1n[nH]c2cnc(-c3cncc(OC[C@@H](N)Cc4ccccc4)c3)cc12` [3-[(2S)-2-amino-3-phenylpropoxy]-5-{3-methyl-1H-pyrazolo[3,4-c]pyridin-5-yl}pyridine] registered an IC50 of 25 nM.

`N[C@H](COc1cncc(-c2cc3c(Cl)n[nH]c3cn2)c1)Cc1ccccc1` [3-[(2S)-2-amino-3-phenylpropoxy]-5-{3-chloro-1H-pyrazolo[3,4-c]pyridin-5-yl}pyridine] yielded an IC50 of 59 nM.

In the case of `N[C@H](COc1cncc(-c2cc3cn[nH]c3cc2[N+](=O)[O-])c1)Cc1c[nH]c2ccccc12` [5-{5-[(2S)-2-amino-3-(1H-indol-3-yl)propoxy]pyridin-3-yl}-6-nitro-1H-indazole], the IC50 stood at 953 nM.

Take `Cn1cccc1-c1n[nH]c2cnc(-c3cncc(OC[C@@H](N)Cc4ccccc4)c3)cc12` [3-[(2S)-2-amino-3-phenylpropoxy]-5-[3-(1-methyl-1H-pyrrol-2-yl)-1H-pyrazolo[3,4-c]pyridin-5-yl]pyridine]: the IC50 came out at 228 nM.

In the case of `N[C@H](COc1cncc(-c2ccc3[nH]nc(Cl)c3c2)c1)Cc1c[nH]c2ccccc12` [5-{5-[(2S)-2-amino-3-(1H-indol-3-yl)propoxy]pyridin-3-yl}-3-chloro-1H-indazole], the midpoint of inhibition, the IC50, lay at 1 nM.

Molecule `N[C@H](COc1cncc(-c2cc3cn[nH]c3cn2)c1)Cc1c[nH]c2ccccc12` [3-[(2S)-2-amino-3-[(5-{1H-pyrazolo[3,4-c]pyridin-5-yl}pyridin-3-yl)oxy]propyl]-1H-indole] returned an IC50 of 0.6 nM.

For the molecule `Cc1n[nH]c2c[n+]([O-])c(-c3cncc(OC[C@@H](N)Cc4ccccc4)c3)cc12` [5-{5-[(2S)-2-amino-3-phenylpropoxy]pyridin-3-yl}-3-methyl-6-oxido-1H-pyrazolo[3,4-c]pyridin-6-ium], the 50% inhibitory concentration (IC50) was determined as 104 nM.

Molecule `N[C@H](COc1cncc(-c2cc3c(-c4ccco4)n[nH]c3cn2)c1)Cc1ccccc1` [3-[(2S)-2-amino-3-phenylpropoxy]-5-[3-(furan-2-yl)-1H-pyrazolo[3,4-c]pyridin-5-yl]pyridine] displayed an IC50 of 6.1 nM.

In the case of `Cc1n[nH]c2cnc(-c3cncc(OC[C@@H](N)Cc4c[nH]c5ccccc45)c3)cc12` [pyrazolopyridine analog, 9g], the IC50 worked out at 0.34 nM. This IC50 is about 18-fold lower than that of the molecule before.

As for `C=Cc1n[nH]c2cnc(-c3cncc(OC[C@@H](N)Cc4ccccc4)c3)cc12` [3-[(2S)-2-amino-3-phenylpropoxy]-5-{3-ethenyl-1H-pyrazolo[3,4-c]pyridin-5-yl}pyridine], the IC50 turned out to be 13 nM. This IC50 is about 38-fold higher than that of the molecule before.

As for `N[C@H](COc1cncc(-c2cc3c(-c4ccccc4)n[nH]c3cn2)c1)Cc1ccccc1` [3-[(2S)-2-amino-3-phenylpropoxy]-5-{3-phenyl-1H-pyrazolo[3,4-c]pyridin-5-yl}pyridine], the IC50 worked out at 8.3 nM.

With `Nc1cc2[nH]ncc2cc1-c1cncc(OC[C@@H](N)Cc2c[nH]c3ccccc23)c1` [5-{5-[(2S)-2-amino-3-(1H-indol-3-yl)propoxy]pyridin-3-yl}-1H-indazol-6-amine], the concentration for half-maximal inhibition (IC50) came out at 51 nM. Compared with the last molecule, the IC50 is about 6.1-fold higher.

In turn, `N[C@H](COc1cncc(-c2ccc3[nH]ncc3c2)c1)Cc1c[nH]c2ccccc12` [5-{5-[(2S)-2-amino-3-(1H-indol-3-yl)propoxy]pyridin-3-yl}-1H-indazole] came in with an IC50 of 1.5 nM.

Take `Nc1cc2[nH]nc(Cl)c2cc1-c1cncc(OC[C@@H](N)Cc2c[nH]c3ccccc23)c1` [5-{5-[(2S)-2-amino-3-(1H-indol-3-yl)propoxy]pyridin-3-yl}-3-chloro-1H-indazol-6-amine]: the IC50 is 7.1 nM.

`N[C@H](COc1cncc(-c2cc3cn[nH]c3cn2)c1)Cc1ccccc1` [3-[(2S)-2-amino-3-phenylpropoxy]-5-{1H-pyrazolo[3,4-c]pyridin-5-yl}pyridine] had an IC50 of 223 nM.
